# Assay: Solubility assessment under saturation conditions in simulated gastrointestinal media
# Settings: thermodynamic from solid
# Method: Biological media (Biorelevant.com, London, UK) were prepared according to the manufacturer's instructions. […] The resulting suspensions were left for 1 h at room temperature under constant magnetic stirring. A 200-μl aliquot of each suspension was taken into an Eppendorf tube and centrifuged at top speed, and 100 μl supernatant was taken for UV spectrometer detection at 434 nm for emodin and 371 nm for quercetin. The concentration was calculated based on standard curves established using pure emodin or quercetin completely dissolved in methanol.
SMILES,"solubility at 1 h (pH 1.6, fassgf or other biorelevant) [µg/mL]","solubility at 1 h (pH 6.5, fassif) [µg/mL]","solubility at 1 h (FaSSGF (fasted-state simulated gastric fluid), pH 1.6, fassgf or other biorelevant) [µg/mL]","solubility at 1 h (FaSSIF (fasted-state simulated intestinal fluid), pH 6.5, fassif) [µg/mL]","solubility at 1 h (FeSSIF (fed-state simulated intestinal fluid), pH 5, fessif) [µg/mL]"
"Cc1cc(O)c2c(c1)C(=O)c1cc(O)cc(O)c1C2=O [Emodin, 1,3,8-trihydroxy-6-methylanthraquinone]",7.1,27.2,,,
"O=c1c(O)c(-c2ccc(O)c(O)c2)oc2cc(O)cc(O)c12 [Quercetin, 3,3′,4′,5,7-pentahydroxylflavone]",,,20.8,43.4,146
